Laboratory results: PMC7822816, “Halo-fluorescein for photodynamic bacteria inactivation in extremely acidic conditions” (Nature Communications, 2021)

Columns and labels:
A. acidoterrestris = assay: IC50 of photodynamic inactivation, A. acidoterrestris; type: cell-based; conditions: Alicyclobacillus acidoterrestris, 10 min; pH 2.5; LED 520 nm, 35 mW/cm^2, 10 min
C. albicans = assay: Fresh food preservation (infected tomato model); set-up: species or system Candida albicans
From the text: Besides fruit juices, the potential of TIF for photo-assisted fresh food preservation was also investigated with tomato as the model (pH 3.0). […] Therefore, the food additive TIF is also promising for fresh food preservation.
Tomatoes were selected as the model for photo-assisted fresh food preservation. All the tomatoes were divided into six groups, and made a wound of ~7 cm^2 by hot water. […] Afterward, the tomatoes were stored at room temperature and then subjected to repeated irradiation at day 2. The total viable counts of bacteria on the infected tomatoes were measured in day 3.

H. pylori = assay: IC50 of photodynamic inactivation, H. pylori; conditions: Helicobacter pylori, 10 min, pH 2.5, read-out: IC50 (H. pylori)
Protocol: For quantitative comparison, the half-maximal inhibitory concentrations (IC50) of TIF for these bacterial were measured (Supplementary Table 6, and Supplementary Figs. 51–58).
Bacterial strains are listed in Supplementary Table 6. S. aureus and MRSA, and C. albicans were provided by West China Hospital of Stomatology, Sichuan University. A. acidoterrestris, S. enterica, H. pylori, L. plantarum, and E. coli were provided by College of Life Science, Sichuan University. The bacteria were cultured overnight in a constant temperature oscillator (37 °C, 170 r/min, the specific culture conditions were listed in Supplementary Table 6). Suspensions of bacteria (100 μL, diluted 1000-folds, PBS) were added with different concentration PSs (final volume of 1 mL), and irradiated with LED (λ = 520 nm, 35 mW/cm^2) for 10 min. Then, the treated bacteria liquid (100 μL) were added into the culture medium and cultured in a 24-well plate. The OD600 of bacteria was measured to obtain the bacteria CFUs, and the survival rate were calculated as C/C0 × 100%, where C is the CFU of sample which treated with PSs and light, and C0 is the blank without any treatment. All photodynamic sterilizations were carried out in at least three replicates.
Irradiation: 520 nm green LED (6 mW/cm2), 10 min. Error bars = Standard Deviation (n=3).
Irradiation: 520 nm green LED (6 mW/cm2), 10 min.

Salmonella = assay: IC50 of photodynamic inactivation, Salmonella; conditions: 10 min, pH 2.5, read-out: IC50 (Salmonella)
Protocol: (§1) The bacteria were cultured overnight in a constant temperature oscillator (37 °C, 170 r/min, the specific culture conditions were listed in Supplementary Table 6). Suspensions of bacteria (100 μL, diluted 1000-folds, PBS) were added with different concentration PSs (final volume of 1 mL), and irradiated with LED (λ = 520 nm, 35 mW/cm^2) for 10 min. Then, the treated bacteria liquid (100 μL) were added into the culture medium and cultured in a 24-well plate. The OD600 of bacteria was measured to obtain the bacteria CFUs, and the survival rate were calculated as C/C0 × 100%, where C is the CFU of sample which treated with PSs and light, and C0 is the blank without any treatment. All photodynamic sterilizations were carried out in at least three replicates.
(§2) Growth inhibition of E. coli by different concentrations of TIF.
(§3) Irradiation: 520 nm green LED (6 mW/cm2), 10 min. Error bars = Standard Deviation (n=6).
(§4) Growth inhibition of Salmonella by different concentrations of
(§5) TIF. Irradiation: 520 nm green LED (6 mW/cm2), 10 min.

E. coli = assay: IC50 / growth inhibition of photodynamic inactivation, E. coli
Protocol: as §1, §2, §3, §4, §5

SMILES: O=C(O)c1ccccc1-c1c2cc(I)c(=O)c(I)c-2oc2c(I)c(O)c(I)cc12 [TIF, 2′,4′,5′,7′-tetraiodofluorescein]
- IC50 (A. acidoterrestris): 0.58 µM
- wound infection of tomatoes, without light (C. albicans; 10 μM in pH 3.0 PBS, TIF only): different magnitudes of wound infection
- colony counting of infected tomatoes (C. albicans; day 3, 10 μM, pH 3.0, 520 nm LED): excellent antimicrobial ability
- IC50 (H. pylori): 0.18 µM
- IC50 (Salmonella): 0.63 µM
- Inhibition ratio (E. coli; E.coli, dose 0.5 μM, 3 V/3 W, 6 mW/cm2, 10 min): > 99.3%
- IC50 (E. coli; Escherichia coli, 10 min, pH 2.5, read-out: IC50 (E. coli)): 0.21 µM
